PubChem BioAssay AID1963441 (Molecular Pharmacology Branch, DTP, NCI, 2024)

System: NCI-H1876 complex spheroid growth, % test/control
Assay: Anticancer human tumor NCI-H1876 cell line growth inhibition [Asc];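 note: compound exposure lasted 7 days starting three days after seeding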;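 for viability, T/C: 100% = DMSO vehicle control wells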
Conditions: for IC50: curve of first compound; for viability, T/C: stronger effect = lower value
Procedure: Multicellular complex tumor spheroid response to apoptosis pathway targeting inhibitors Alrizomadlin, Pelcitoclax, and Dasminapant in combination with a variety of drugs and investigational agents in selected tumor cell lines
The MDM2 inhibitor alrizomadlin, the Bcl-2/Bcl-xL inhibitor pelcitoclax, and the IAPs inhibitor dasminapant were evaluated both individually and in combination with standard of care and investigational anticancer small molecules within a complex spheroid model of solid tumors. . Complex spheroids include a stromal component modeled by human endothelial cells (HUVEC) and fibroblasts modeled by human mesenchymal stem cells (MSCs). The concentration ranges selected for each drug and investigational agent were based upon clinically achievable concentrations if the clinical Cmax of the agent was known.
Compounds. The drugs and investigational agents: alrizomadlin (APG-115; NSC831270), pelcitoclax (APG-1252; NSC835773), dasminapant (APG-1387;NSC834197), TAK-243 (NSC785004), copanlisib (NSC809693), olaparib (NSC753686), talazoparib (NSC767125), cobimetinib (NSC 768068), eltanexor (KPT-8602, NSC 794443), abemaciclib (NSC 768073), sotorasib (NSC818433), adagrasib (NSC 831453), MRTX-1133 (NSC 836407), Iadademestat (ORY1001, NSC 806812), and RMC-4630 (NSC839698), were obtained from the NCI Developmental Therapeutics Program Chemical Repository. The FDA-approved anticancer drug set is available from the Developmental Therapeutics Program at https://dtp.cancer.gov/organization/dscb/obtaining/available plates.htm. […] The stock solutions were prepared in dimethyl sulfoxide (DMSO, Sigma-Aldrich, St. Louis, MO, cat. D2650) at 800-fold the tested concentration and stored at -70 degrees C prior to their use. All drugs and investigational agents were tested over a range starting from a high concentration at or near the clinical Cmax and decreasing in half-log increments. If the clinical Cmax for an agent had not been determined, the highest concentration tested was 10 microM.
The patient-derived cancer (PDC) cell lines include five colon adenocarcinomas: 186277-243-T-J2-PDC, 616215-338-R-J1-PDC, 439559-082-T-J2-PDC, 463943-066-T-J2-PDC, and 519858-162-T-J1-PDC; three pancreatic carcinomas: 323965-272-R-J2-PDC, 521955-158-R6-J3-PDC, and 521955-158-R2-J5-PDC; two uterine sarcomas: 327498-152-R-J2-PDC and 993429-296-R-J1-PDC; two rhabdomyosarcomas: 755483-174-R-J1-PDC and 772245-204-R-J1-PDC; two soft tissue sarcomas: 126254-015-R-J1-PDC and 494315-158-R-J1-PDC; two malignant fibrous histiocytomas: 317291-083-R-J1-PDC and 596521-263-R-J1-PDC; two breast carcinomas: 171881-019-R-J1-PDC and 885512-296-R-J2-PDC; and one ovarian carcinoma: 6556581-035-R-J-PDC were obtained from the NCI PDMR, (https://pdmr.cancer.gov). The established cell lines HSSY-2 synovial sarcoma (RRID:CVCL 8719), SYO-1 synovial sarcoma (RRID:CVCL_7146), MPNST malignant peripheral neural sheath tumor were obtained from the Sloan Kettering Institute. The following established cell lines were purchased from the American Type Culture Collection (ATCC, Manassas, VA), Sor the received from the NCI repository:, PANC-1 pancreatic carcinoma (CRL-1469, RRID:CVCL_0480), OVCAR-5 ovarian carcinoma (RRID:CVCL_1628), OVCAR-8 ovarian carcinoma (RRID:CVCL_1629), , MCF-7 breast carcinoma (CRL-12584, RRID:CVCL_0031), MDA-MB-231 breast carcinoma (CRL-12532, RRID:CVCL_0062), NCI-H1876 small cell lung carcinoma (CRL-5902, RRID:CVCL_1503), NCI-H510A small cell lung carcinoma (HTB-184, RRID:CVCL_1565), NCI-H1417 (CRL-5869, RRID:CVCL_1469), and NCI-H196 small cell lung carcinoma (CRL-5823, RRID:CVCL_1509). Dr. Peter Houghton (Greehey Children's Cancer Research Institute, University of Texas Health Science Center, San Antonio, TX) provided Rh-18 rhabdomyosarcoma (RRID:CVCL_1659). Pooled donor human umbilical vein endothelial cells (HUVEC, Lonza, cat. CC-2519) and human mesenchymal stem cells (hMSC, Lonza, cat. PT-2501) were purchased from Lonza (Walkersville, MD).
Cell Culture. […]

Structure (SMILES): NC(=O)C(=Cn1cnc(-c2cc(C(F)(F)F)cc(C(F)(F)F)c2)n1)c1cncnc1 + Cc1c(S(C)(=O)=O)c(-c2cc(F)cc(N3CCN(c4ccc(NS(=O)(=O)c5ccc(NC(CCN6CCC(C(=O)OCCCP(=O)(O)O)CC6)CSc6ccccc6)c(S(=O)(=O)C(F)(F)F)c5)cc4)CC3)c2)c(-c2ccc(Cl)cc2)n1C(C)C
- IC50 (second compound 0.0316 µM): > 300 nM
- IC50 (second compound 0.1 µM): > 300 nM
- IC50 (second compound 0.316 µM): 273 nM
- IC50 (second compound 1 µM): 223 nM
- IC50 (second compound 3.16 µM): 163 nM
- IC50 (second compound 10 µM): 149 nM
- viability, T/C (second compound 0.0316 µM, first compound 0.000949 µM): 105%
- viability, T/C (second compound 0.0316 µM, first compound 0.003 µM): 102%
- viability, T/C (second compound 0.0316 µM, first compound 0.00949 µM): 94.4%
- viability, T/C (second compound 0.0316 µM, first compound 0.03 µM): 97.8%
- viability, T/C (second compound 0.0316 µM, first compound 0.0949 µM): 105%
- viability, T/C (second compound 0.0316 µM, first compound 0.3 µM): 55.1%
- viability, T/C (second compound 0.1 µM, first compound 0.000949 µM): 99.3%
- viability, T/C (second compound 0.1 µM, first compound 0.003 µM): 112%
- viability, T/C (second compound 0.1 µM, first compound 0.00949 µM): 113%
- viability, T/C (second compound 0.1 µM, first compound 0.03 µM): 106%
- viability, T/C (second compound 0.1 µM, first compound 0.0949 µM): 101%
- viability, T/C (second compound 0.1 µM, first compound 0.3 µM): 52.5%
- viability, T/C (second compound 0.316 µM, first compound 0.000949 µM): 102%
- viability, T/C (second compound 0.316 µM, first compound 0.003 µM): 107%
- viability, T/C (second compound 0.316 µM, first compound 0.00949 µM): 91.3%
- viability, T/C (second compound 0.316 µM, first compound 0.03 µM): 97.1%
- viability, T/C (second compound 0.316 µM, first compound 0.0949 µM): 96.3%
- viability, T/C (second compound 0.316 µM, first compound 0.3 µM): 45.8%
- viability, T/C (second compound 1 µM, first compound 0.000949 µM): 99.6%
- viability, T/C (second compound 1 µM, first compound 0.003 µM): 96.9%
- viability, T/C (second compound 1 µM, first compound 0.00949 µM): 89.7%
- viability, T/C (second compound 1 µM, first compound 0.03 µM): 96%
- viability, T/C (second compound 1 µM, first compound 0.0949 µM): 88.7%
- viability, T/C (second compound 1 µM, first compound 0.3 µM): 36.6%
- viability, T/C (second compound 3.16 µM, first compound 0.000949 µM): 101%
- viability, T/C (second compound 3.16 µM, first compound 0.003 µM): 92.5%
- viability, T/C (second compound 3.16 µM, first compound 0.00949 µM): 95.5%
- viability, T/C (second compound 3.16 µM, first compound 0.03 µM): 92.9%
- viability, T/C (second compound 3.16 µM, first compound 0.0949 µM): 69.4%
- viability, T/C (second compound 3.16 µM, first compound 0.3 µM): 27.9%
- viability, T/C (second compound 10 µM, first compound 0.000949 µM): 109%
- viability, T/C (second compound 10 µM, first compound 0.003 µM): 99.9%
- viability, T/C (second compound 10 µM, first compound 0.00949 µM): 90%
- viability, T/C (second compound 10 µM, first compound 0.03 µM): 92.5%
- viability, T/C (second compound 10 µM, first compound 0.0949 µM): 66.9%
- viability, T/C (second compound 10 µM, first compound 0.3 µM): 23.1%
